The results in this text go back to US4096174A, “Anionic naphthalene thioureido-diphenyloxides” (American Cyanamid Company, priority 1977, dated 1978).

In assay [1] the test system is late components of human complement (C3-C9). In words: Test, Code 035 (C3-C9 inhibitor), lysis of EAC 142. Type of assay: biochemical. The conditions noted are these: two-fold serial dilution assay; higher well number indicates higher activity. The text has this: An active inhibitor protects C2 from C1 and C4; (ii) Test, Code 035 (C3-C9 inhibitor) - This test determines the ability of the late components of human complement (C3-C9) to lyse EAC 142 in the presence of appropriate dilutions of the test compound. An active inhibitor protects EAC 142 from lysis by human C3-C9; (iii) Test, Code 036 (C-Shunt inhibitor) - In this test human erythrocytes rendered fragile are lysed in autologous serum via the shunt pathway activated by cobra venom factor in the presence of appropriate dilutions of the test compound. Inhibition of the shunt pathway results in failure of lysis; (iv) Forssman Vasculitis Test - Here, the well known complement dependent lesion, Forssman Vasculitis, is produced in guinea pigs by intradermal injection of rabbit anti-Forssman antiserum. […]

Another assay concerns whole complement. As to the kind of experiment: Complement Level Reduction Test (in vivo, capillary tube assay of serum). Also noted: species or system guinea pig. The note with it: 200 mg/kg.

Counter-ions that a name gives are not always drawn.

With `O=S(=O)(O)c1cc(NC(=S)Nc2ccc(Oc3ccc(NC(=S)Nc4cc(S(=O)(=O)O)cc5cc(S(=O)(=O)O)cc(S(=O)(=O)O)c45)c(NC(=S)Nc4cc(S(=O)(=O)O)cc5cc(S(=O)(=O)O)cc(S(=O)(=O)O)c45)c3)cc2NC(=S)Nc2cc(S(=O)(=O)O)cc3cc(S(=O)(=O)O)cc(S(=O)(=O)O)c23)c2c(S(=O)(=O)O)cc(S(=O)(=O)O)cc2c1` [8,8',8",8'"-{Oxybis[4,1,2-phenylbis(2-thioureylene)]}-tetra-1,3,6-naphthalenetrisulfonic acid dodecasodium salt], the “C-Late 035 Wells” value in assay [1] is “+2 Wells”. Moreover, the “In Vivo Activity (Guinea Pig) % Inhibition” value was -82% with whole complement (Intraperitoneal, 30 minutes); -88% with whole complement (Intraperitoneal, 60 minutes); -94% with whole complement (Intraperitoneal, 120 minutes); -98% in the assay with whole complement (Intravenous, 2 minutes); -95% in the assay on whole complement (Intravenous, 30 minutes); -91% in the assay on whole complement (Intravenous, 120 minutes).
